From US9487500B2, “Compounds and compositions thereof” (Inhibikase Therapeutics, Inc., priority 2012, dated 2016) come the findings set out here.

In this experiment the test system is K562 cells. Kind of experiment: MTS cell viability assay (K562 cell line). It is filed as cell-based. Conditions: Homo sapiens, 48 hr. As to the method:
K562 cells were the first human immortalised myelogenous leukemia line to be established. K562 cells are of the erythroleukemia type, and the line is derived from a CML patient. The cells are non-adherent and rounded, are positive for the bcr:abl fusion gene.
K562 cell line is maintained in RPMI1640 with 10% fetal Bovine Serum. 2500 cells/well of K562 cells were plated in 96 well tissue culture plate. Cells were incubated for 48 hours with serially diluted compound (final concentration from 20 μM-0.002 μM) for 48 hr. MTS (3-(4,5-dimethylthiazol-2-yl)-5-(3-carboxymethoxyphenyl)-2-(4-sulfophenyl)-2H-tetrazolium), obtained from Promega was added to the wells and plates were incubated at […] in 5% CO2 for 4 hrs. The MTS compound is bio-reduced by cells into a colored formazan product that is soluble in tissue culture medium. The quantity of formazan product as measured by the amount of 490 nm absorbance is directly proportional to the number of living cells in culture. The absorbance was read at 490 nm (Spectramax microplate reader). The Percentage inhibition was calculated and plotted against the concentration of inhibitor and data was fit to Non Linear Regression curve fit (sigmoidal dose response curve with variable slope-four parameters) using Graph pad prism 5.

`Cc1ccc(NC(=O)c2ccc(CN3CC[N+](C)(COC(=O)N[C@H](C)c4ccccc4)CC3)cc2)cc1Nc1nccc(-c2cccnc2)n1` [Compound 1011, (R)-1-methyl-4-(4-((4-methyl-3-((4-(pyridin-3-yl)pyrimidin-2-yl)amino)phenyl)carbamoyl)benzyl)-1-((((1-phenylethyl)carbamoyl)oxy)methyl)piperazin-1-ium iodide]: the inhibition at 0.2 µM was 45%, the inhibition at 2 µM came out at 63% and the inhibition at 20 µM came out at 70%.
On the same counts, the results for `CCC(C)(C)OC(=O)OC[N+]1(C)CCN(Cc2ccc(C(=O)Nc3ccc(C)c(Nc4nccc(-c5cccnc5)n4)c3)cc2)CC1` [Compound 1028, 1-methyl-4-(4-(4-methyl-3-(4-(pyridin-3-yl)pyrimidin-2-ylamino)phenylcarbamoyl)benzyl)-1-((tert-pentyloxycarbonyloxy)methyl)piperazin-1-ium iodide] are 40%, 63% and 76%.
On the same counts, the results for `Cc1ccc(NC(=O)c2ccc(CN3CCN(C)CC3)cc2)cc1Nc1nccc(-c2cccnc2)n1` [imatinib, 4-[(4-methylpiperazin-1-yl)methyl]-N-(4-methyl-3-{[4-(pyridin-3-yl)pyrimidin-2-yl]amino}phenyl)benzamide, reference compound] are 48%, 64% and 67%.
